Experimental data published in US11584755B2 (IDEAYA BIOSCIENCES, INC., priority 2017, dated 2023).

Legend:
Type in all cases: biochemical
hFEN1 = hFEN1 (Homo sapiens (Human), UniProt P39748); experiment: Enzymatic IC50 assay, FAM-labeled DNA oligomer substrate, fluorescence intensity (FEN1); conditions: hFEN1 70 pM, substrate 100 nM, reaction time 20 minutes, 23° C.
Summary of the method: (§1)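 FEN1, EXO1 or XPG was preincubated 15 min with compound, then the FAM-labelled DNA oligomer substrate was added in Tris-HCl pH 8.0 with 10 mM MgCl2 at 23° C. FEN1 was 70 pM with 100 nM substrate for 20 min, EXO1 6 nM with 30 nM for 60 min, and XPG 100 nM with 100 nM for 120 min. Reactions were EDTA-stopped and read by fluorescence intensity.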

hEXO1, Isoform1 = hEXO1, Isoform1 (Homo sapiens (Human), UniProt Q9UQ84); experiment: Enzymatic IC50 assay, FAM-labeled DNA oligomer substrate, fluorescence intensity (EXO1); conditions: hEXO1 6 nM, substrate 30 nM, reaction time 60 minutes, 23° C.
Summary of the method: as §1

hXPG = hXPG (Homo sapiens (Human), UniProt P28715); experiment: Enzymatic IC50 assay, FAM-labeled DNA oligomer substrate, fluorescence intensity (XPG); conditions: hXPG 100 nM, substrate 100 nM, reaction time 120 minutes, 23° C.
Description: FEN1, EXO1 or XPG enzyme was incubated with compound or vehicle (DMSO) and the FAM-labeled DNA oligomer substrate in a microtiter plate. The stop buffer contains EDTA to stop the enzymatic reaction. The plate is read for fluorescence intensity. The high control (DMSO) with high fluorescence intensity represents no inhibition of enzymatic reaction while the low control (10 μM) with low fluorescence intensity represents full inhibition of enzymatic reaction.
• FEN1 • hFEN1: 70 pM • Substrate: 100 nM • Reaction time: 20 minutes • EXO1 • hEXO1: 6 nM, Isoforml • Substrate: 30 nM • Reaction time: 60 minutes • XPG • hXPG: 100 nM • Substrate: 100 nM • Reaction time: 120 minutes
Annealing Buffer: 50 mM Tris-HCl, 50 mM NaCl, 1 mM DTT Assay buffer: 50 mM Tris-HCl pH 8.0, 10 mM MgCl2, 0.01% BSA, 1 mM DTT Stop buffer: 50 mM EDTA in assay buffer Temperature: 23° C. Total volume: 40 μl Controls: • 0% inhibition control: DMSO • 100% inhibition control: 10 μM (final) 5-chloro-3-hydroxy-1,3-dihydroquinazoline-2,4-dione Enzyme Reaction and Detection: • 1. Prepare 25 μM intermediate stock of the substrate by diluting SEQ ID NO:1, SEQ ID NO:2, and SEQ ID NO:3 in annealing buffer, in a PCR tube. • 2. Place the PCR tube on a heat block, heat at 95° C. for 3 minutes, then drop in 0.2° C. increments over 2 minutes, stopping at 25° C. • 3. Remove the tube and let the tube cool at room temperature. • 4. Transfer 10 μL of 3× final concentration test compounds or DMSO to the appropriate wells of a microtiter plate. • 5. Transfer 10 μL of 3× final concentration enzyme in assay buffer or assay buffer alone to the appropriate wells. • 6. Incubate the plate at room temperature for 15 minutes. • 7. Transfer 10 μL of 3× substrate in assay buffer to all the test wells. • 8. Incubate the plate at room temperature for prescribed reaction time. • 9. Centrifuge the plate at 1000 rpm for 1 minute. • 10. Transfer 10 μL of stop buffer to all the test wells. • 11. Centrifuge the plate at 1000 rpm for 1 minute. • 12. Read the plate on a plate reader.

hFEN1, sequence (P39748 whole entry): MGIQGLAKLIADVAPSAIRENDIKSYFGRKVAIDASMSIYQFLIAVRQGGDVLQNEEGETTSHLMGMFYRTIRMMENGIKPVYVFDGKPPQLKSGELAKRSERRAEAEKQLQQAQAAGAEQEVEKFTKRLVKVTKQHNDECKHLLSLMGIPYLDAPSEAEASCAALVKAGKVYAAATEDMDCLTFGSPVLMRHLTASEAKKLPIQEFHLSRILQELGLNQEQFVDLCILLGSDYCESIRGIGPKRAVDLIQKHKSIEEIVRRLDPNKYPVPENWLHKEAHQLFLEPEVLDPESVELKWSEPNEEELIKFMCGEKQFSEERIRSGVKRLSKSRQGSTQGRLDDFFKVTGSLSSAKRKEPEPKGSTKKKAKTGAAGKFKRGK
hEXO1, Isoform1, sequence (Q9UQ84 whole entry, canonical isoform): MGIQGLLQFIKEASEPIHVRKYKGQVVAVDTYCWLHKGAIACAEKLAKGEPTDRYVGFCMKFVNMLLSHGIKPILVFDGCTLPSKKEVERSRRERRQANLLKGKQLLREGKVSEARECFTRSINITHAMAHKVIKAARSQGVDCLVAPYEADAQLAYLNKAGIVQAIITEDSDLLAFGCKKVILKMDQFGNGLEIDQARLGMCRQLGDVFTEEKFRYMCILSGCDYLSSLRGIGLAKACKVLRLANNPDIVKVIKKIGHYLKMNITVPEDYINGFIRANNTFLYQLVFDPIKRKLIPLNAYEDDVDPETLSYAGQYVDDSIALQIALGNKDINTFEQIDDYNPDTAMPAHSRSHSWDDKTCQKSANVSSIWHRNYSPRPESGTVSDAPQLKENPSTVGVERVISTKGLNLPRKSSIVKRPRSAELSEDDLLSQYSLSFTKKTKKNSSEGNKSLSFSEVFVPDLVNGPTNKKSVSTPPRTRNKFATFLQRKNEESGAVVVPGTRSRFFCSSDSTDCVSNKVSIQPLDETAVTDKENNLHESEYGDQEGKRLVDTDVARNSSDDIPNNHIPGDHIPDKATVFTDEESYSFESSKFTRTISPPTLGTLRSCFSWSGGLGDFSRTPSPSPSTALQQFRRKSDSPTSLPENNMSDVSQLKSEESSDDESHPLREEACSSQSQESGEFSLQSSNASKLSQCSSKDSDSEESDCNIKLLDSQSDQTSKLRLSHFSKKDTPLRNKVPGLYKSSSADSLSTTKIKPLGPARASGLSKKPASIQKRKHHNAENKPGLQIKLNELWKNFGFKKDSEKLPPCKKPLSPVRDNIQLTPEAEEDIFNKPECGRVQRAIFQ
hXPG, sequence (P28715 whole entry): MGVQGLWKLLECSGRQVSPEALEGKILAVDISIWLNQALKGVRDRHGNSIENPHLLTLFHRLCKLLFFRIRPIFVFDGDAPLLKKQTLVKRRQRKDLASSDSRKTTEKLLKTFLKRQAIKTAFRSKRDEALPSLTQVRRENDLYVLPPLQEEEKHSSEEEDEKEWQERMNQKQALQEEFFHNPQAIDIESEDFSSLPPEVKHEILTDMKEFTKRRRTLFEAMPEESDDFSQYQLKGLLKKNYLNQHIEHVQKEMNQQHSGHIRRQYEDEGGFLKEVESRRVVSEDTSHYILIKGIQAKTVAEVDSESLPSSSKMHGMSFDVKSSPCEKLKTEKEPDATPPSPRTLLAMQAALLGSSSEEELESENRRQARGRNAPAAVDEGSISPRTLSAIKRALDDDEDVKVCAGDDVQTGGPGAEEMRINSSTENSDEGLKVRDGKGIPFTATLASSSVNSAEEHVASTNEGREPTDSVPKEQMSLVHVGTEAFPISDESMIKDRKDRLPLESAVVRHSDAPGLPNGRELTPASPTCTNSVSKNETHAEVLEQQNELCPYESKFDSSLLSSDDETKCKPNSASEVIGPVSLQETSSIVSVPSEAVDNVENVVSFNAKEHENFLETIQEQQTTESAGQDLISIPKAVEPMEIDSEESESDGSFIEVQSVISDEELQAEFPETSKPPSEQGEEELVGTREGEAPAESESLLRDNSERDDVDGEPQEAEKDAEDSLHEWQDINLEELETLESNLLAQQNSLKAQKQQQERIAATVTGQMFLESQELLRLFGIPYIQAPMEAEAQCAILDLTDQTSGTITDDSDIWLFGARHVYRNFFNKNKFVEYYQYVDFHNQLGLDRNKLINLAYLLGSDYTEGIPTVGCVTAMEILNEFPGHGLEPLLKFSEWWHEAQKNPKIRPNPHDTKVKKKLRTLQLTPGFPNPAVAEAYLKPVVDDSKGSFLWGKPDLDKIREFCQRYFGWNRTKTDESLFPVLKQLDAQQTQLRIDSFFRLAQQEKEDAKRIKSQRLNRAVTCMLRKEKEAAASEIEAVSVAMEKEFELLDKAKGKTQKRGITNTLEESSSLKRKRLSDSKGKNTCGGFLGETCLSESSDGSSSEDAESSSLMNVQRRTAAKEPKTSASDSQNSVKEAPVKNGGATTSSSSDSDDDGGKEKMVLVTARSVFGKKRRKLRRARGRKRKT

| SMILES | IC50 (hFEN1) | IC50 (hEXO1, Isoform1) | IC50 (hXPG) |
| --- | --- | --- | --- |
| O=C(O)c1c(O)c(=O)n(Cc2nc(-c3ccccc3)no2)c2ccsc12 [Example 86, 6-hydroxy-5-oxo-4-[(3-phenyl-1,2,4-oxadiazol-5-yl)methyl]-4,5-dihydrothieno[3,2-b]pyridine-7-carboxylic acid] | 0.25 to 0.75 µM | 0.75 to 2.25 µM | 0.75 to 2.25 µM |
| Cc1cc(Cn2c(=O)c(O)c(C(=O)O)c3sccc32)on1 [Example 83, 6-hydroxy-4-[(3-methylisoxazol-5-yl)methyl]-5-oxo-4,5-dihydrothieno[3,2-b]pyridine-7-carboxylic acid] | 0.25 to 0.75 µM | > 10 µM | > 10 µM |
| O=C(O)c1c(O)c(=O)n(Cc2cnn(Cc3cnc4ccccn34)c2)c2ccsc12 [Example 144, 6-hydroxy-4-{[1-(imidazo[1,2-a]pyridin-3-ylmethyl)-1H-pyrazol-4-yl]methyl}-5-oxo-4,5-dihydrothieno[3,2-b]pyridine-7-carboxylic acid] | < 0.2 µM | 2.25 to 10 µM | > 10 µM |
| O=C(O)c1c(O)c(=O)n(Cc2cnn(Cc3ccccn3)c2)c2ccsc12 [Example 119, 6-hydroxy-5-oxo-4-{[1-(pyridin-2-ylmethyl)-1H-pyrazol-4-yl]methyl}-4,5-dihydrothieno[3,2-b]pyridine-7-carboxylic acid] | < 0.2 µM | 2.25 to 10 µM | > 10 µM |
| O=C(O)c1c(O)c(=O)n(CC2CCOC2)c2ccsc12 (stereo not drawn) [Example 42, 6-hydroxy-5-oxo-4-((tetrahydrofuran-3-yl)methyl)-4,5-dihydrothieno[3,2-b]pyridine-7-carboxylic acid] | 2.25 to 10 µM | 2.25 to 10 µM | 2.25 to 10 µM |
| O=C(O)c1c(O)c(=O)n(Cc2cn(-c3ccccc3)nn2)c2ccsc12 [Example 18, 6-hydroxy-5-oxo-4-((1-phenyl-1H-1,2,3-triazol-4-yl)methyl)-4,5-dihydrothieno[3,2-b]pyridine-7-carboxylic acid] | 0.25 to 0.75 µM | 0.25 to 0.75 µM | 0.75 to 2.25 µM |
| COc1ccc(Cn2c(=O)c(O)c(C(=O)O)c3sccc32)cc1 [Example 12, 6-hydroxy-4-[(4-methoxyphenyl)methyl]-5-oxo-thieno[3,2-b]pyridine-7-carboxylic acid] | < 0.2 µM | 2.25 to 10 µM | 2.25 to 10 µM |
| O=C(O)c1c(O)c(=O)n(Cc2cnn(-c3ccccc3)c2)c2ccsc12 [Example 84, 6-hydroxy-5-oxo-4-[(1-phenyl-1H-pyrazol-4-yl)methyl]-4,5-dihydrothieno[3,2-b]pyridine-7-carboxylic acid] | < 0.2 µM | 0.25 to 0.75 µM | 0.25 to 0.75 µM |
| O=C(O)c1c(O)c(=O)n(Cc2cnn(Cc3cn4ccncc4n3)c2)c2ccsc12 [Example 125, 6-hydroxy-4-{[1-(imidazo[1,2-a]pyrazin-2-ylmethyl)-1H-pyrazol-4-yl]methyl}-5-oxo-4,5-dihydrothieno[3,2-b]pyridine-7-carboxylic acid] | < 0.2 µM | 0.75 to 2.25 µM | 2.25 to 10 µM |
| CS(=O)(=O)Nc1ccc(-n2cc(Cn3c(=O)c(O)c(C(=O)O)c4sccc43)cn2)cc1 [Example 117, 6-hydroxy-4-({1-[4-(methylsulfonamido)phenyl]-1H-pyrazol-4-yl}methyl)-5-oxo-4,5-dihydrothieno[3,2-b]pyridine-7-carboxylic acid] | < 0.2 µM | 0.25 to 0.75 µM | 0.25 to 0.75 µM |
| CC(=O)Nc1ccc(-n2cc(Cn3c(=O)c(O)c(C(=O)O)c4sccc43)cn2)cc1 [Example 22, 4-{[1-(4-acetamidophenyl)-1H-pyrazol-4-yl]methyl}-6-hydroxy-5-oxo-4,5-dihydrothieno[3,2-b]pyridine-7-carboxylic acid] | < 0.2 µM | 0.25 to 0.75 µM | 0.25 to 0.75 µM |
| O=C(O)c1c(O)c(=O)n(Cc2nnc(-c3ccccc3)o2)c2ccsc12 [Example 85, 6-hydroxy-5-oxo-4-[(5-phenyl-1,3,4-oxadiazol-2-yl)methyl]-4,5-dihydrothieno[3,2-b]pyridine-7-carboxylic acid] | 0.25 to 0.75 µM | 2.25 to 10 µM | 0.75 to 2.25 µM |

The next lines start with the values.

| IC50 (hFEN1) | IC50 (hEXO1, Isoform1) | IC50 (hXPG) | SMILES |
| --- | --- | --- | --- |
| 0.25 to 0.75 µM | 2.25 to 10 µM | 2.25 to 10 µM | O=C(O)c1c(O)c(=O)n(Cc2ccc(Br)cc2)c2ccsc12 [Example 5, 4-(4-bromobenzyl)-6-hydroxy-5-oxo-4,5-dihydrothieno[3,2-b]pyridine-7-carboxylic acid] |
| < 0.2 µM | 2.25 to 10 µM | 0.75 to 2.25 µM | N#Cc1ccc(Cn2cc(Cn3c(=O)c(O)c(C(=O)O)c4sccc43)cn2)c(C(F)(F)F)c1 [Example 146, 4-({1-[4-cyano-2-(trifluoromethyl)benzyl]-1H-pyrazol-4-yl}methyl)-6-hydroxy-5-oxo-4,5-dihydrothieno[3,2-b]pyridine-7-carboxylic acid] |
| < 0.2 µM | 0.25 to 0.75 µM | 0.75 to 2.25 µM | O=C(O)c1c(O)c(=O)n(Cc2cnn(-c3cccnc3)c2)c2ccsc12 [Example 87, 6-hydroxy-5-oxo-4-{[1-(pyridin-3-yl)-1H-pyrazol-4-yl]methyl}-4,5-dihydrothieno[3,2-b]pyridine-7-carboxylic acid] |
| < 0.2 µM | 2.25 to 10 µM | 2.25 to 10 µM | O=C(O)c1c(O)c(=O)n(Cc2cnn(Cc3ccnnc3)c2)c2ccsc12 [Example 132, 6-hydroxy-5-oxo-4-{[1-(pyridazin-4-ylmethyl)-1H-pyrazol-4-yl]methyl}-4,5-dihydrothieno[3,2-b]pyridine-7-carboxylic acid] |
| < 0.2 µM | 2.25 to 10 µM | 2.25 to 10 µM | O=C(O)c1c(O)c(=O)n(Cc2cnn(CCc3ccncc3)c2)c2ccsc12 [Example 28, 6-hydroxy-5-oxo-4-({1-[2-(4-pyridyl)ethyl]pyrazol-4-yl}methyl)thieno[3,2-b]pyridine-7-carboxylic acid] |
| < 0.2 µM | 2.25 to 10 µM | 2.25 to 10 µM | CS(=O)(=O)c1ccc(Cn2cc(Cn3c(=O)c(O)c(C(=O)O)c4sccc43)cn2)cc1 [Example 130, 6-hydroxy-4-({1-[4-(methylsulfonyl)benzyl]-1H-pyrazol-4-yl}methyl)-5-oxo-4,5-dihydrothieno[3,2-b]pyridine-7-carboxylic acid] |
| < 0.2 µM | 0.75 to 2.25 µM | 2.25 to 10 µM | O=C(O)c1c(O)c(=O)n(Cc2ccc3[nH]cnc3c2)c2ccsc12 [Example 99, 4-[(1H-benzo[d]imidazol-5-yl)methyl]-6-hydroxy-5-oxo-4,5-dihydrothieno[3,2-b]pyridine-7-carboxylic acid] |
| < 0.2 µM | 2.25 to 10 µM | 2.25 to 10 µM | CS(=O)(=O)c1cccc(Cn2cc(Cn3c(=O)c(O)c(C(=O)O)c4sccc43)cn2)c1 [Example 131, 6-hydroxy-4-({1-[3-(methylsulfonyl)benzyl]-1H-pyrazol-4-yl}methyl)-5-oxo-4,5-dihydrothieno[3,2-b]pyridine-7-carboxylic acid] |
